Values after ≈ are worked out from the molar mass of the structure shown.
Tests used:
Bacillus subtilis = test: Antimicrobial activity against Bacillus subtilis ATCC 6633 after 2 days by twofold serial broth dilution method; type: functional; conditions: ATCC 6633, 48 h
[1] = tested on: Schizosaccharomyces pombe; test: Antimicrobial activity against Schizosaccharomyces pombe IFO 0342 after 2 days by twofold serial broth dilution method; type: functional; conditions: IFO 0342, 48 h
Escherichia coli = test: Antimicrobial activity against Escherichia coli IFO 3545 after 2 days by twofold serial broth dilution method; type: functional; conditions: IFO 3545, 48 h
Pseudomonas aeruginosa = test: Antimicrobial activity against Pseudomonas aeruginosa IAM 1007 after 2 days by twofold serial broth dilution method; type: functional; conditions: IAM 1007, 48 h
Wickerhamomyces anomalus = test: Antimicrobial activity against Hansenula anomala IFO 0136 after 2 days by twofold serial broth dilution method; type: functional; conditions: IFO 0136, 48 h
Aspergillus niger = test: Antimicrobial activity against Aspergillus niger ATCC 6275 after 2 days by twofold serial broth dilution method; type: functional; conditions: ATCC 6275, 48 h
Saccharomyces cerevisiae = test: Antimicrobial activity against Saccharomyces cerevisiae IFO 0203 after 2 days by twofold serial broth dilution method; type: functional; conditions: IFO 0203, 48 h
Penicillium crustosum = test: Antimicrobial activity against Penicillium crustosum Thom after 2 days by twofold serial broth dilution method; type: functional; conditions: 48 h
Proteus vulgaris = test: Antimicrobial activity against Proteus vulgaris IAM 12003 after 2 days by twofold serial broth dilution method; type: functional; conditions: IAM 12003, 48 h
Cyberlindnera jadinii = test: Antimicrobial activity against Candida utilis ATCC 42402 after 2 days by twofold serial broth dilution method; type: functional; conditions: Williopsis jadinii, ATCC 42402, 48 h
Staphylococcus aureus = test: Antimicrobial activity against Staphylococcus aureus NCTC 8530 after 2 days by twofold serial broth dilution method; type: functional; conditions: NCTC 8530, 48 h
[2] = tested on: Rhizopus microsporus var. chinensis; test: Antimicrobial activity against Rhizopus chinensis IFO 4772 after 2 days by twofold serial broth dilution method; type: functional; conditions: IFO 4772, 48 h
Sclerotinia = test: Antimicrobial activity against Sclerotinia libertiana Ss after 2 days by twofold serial broth dilution method; conditions: 48 h
Micrococcus luteus = test: Antimicrobial activity against Micrococcus luteus IFO 3333 after 2 days by twofold serial broth dilution method; type: functional; conditions: IFO 3333, 48 h
Mucor mucedo = test: Antimicrobial activity against Mucor mucedo IFO 7684 after 2 days by twofold serial broth dilution method; type: functional; conditions: IFO 7684, 48 h

Structure (SMILES)	MIC (Bacillus subtilis)	MIC [1]	MIC (Escherichia coli)	MIC (Pseudomonas aeruginosa)	MIC (Wickerhamomyces anomalus)	MIC (Aspergillus niger)	MIC (Saccharomyces cerevisiae)	MIC (Penicillium crustosum)	MIC (Proteus vulgaris)	MIC (Cyberlindnera jadinii)	MIC (Staphylococcus aureus)	MIC [2]	MIC (Sclerotinia)	MIC (Micrococcus luteus)	MIC (Mucor mucedo)
C=C1[C@@H](C)CC[C@@]2(C)[C@H]1CC=C(C=O)[C@]2(O)C=O	> 100 µg/mL	25 µg/mL (≈ 101 µM)	> 100 µg/mL	> 100 µg/mL	25 µg/mL (≈ 101 µM)	50 µg/mL (≈ 201 µM)	1.56 µg/mL (≈ 6.28 µM)	50 µg/mL (≈ 201 µM)	> 100 µg/mL	3.13 µg/mL (≈ 12.6 µM)	> 100 µg/mL	100 µg/mL (≈ 403 µM)	3.13 µg/mL (≈ 12.6 µM)	> 100 µg/mL	25 µg/mL (≈ 101 µM)
CC1(C)C=Cc2cc([C@@H]3CC(=O)c4ccc(O)cc4O3)ccc2O1 [ABYSSINONE I]	> 100 µg/mL	–	> 100 µg/mL	> 100 µg/mL	–	–	> 100 µg/mL	> 100 µg/mL	–	> 100 µg/mL	> 100 µg/mL	–	–	–	> 100 µg/mL
CC(C)=CCc1cc(/C=C/C(=O)c2ccc(O)cc2O)cc(CC=C(C)C)c1O [ABYSSINONE VI]	> 100 µg/mL	–	> 100 µg/mL	> 100 µg/mL	–	–	> 100 µg/mL	> 100 µg/mL	–	> 100 µg/mL	> 100 µg/mL	–	–	–	> 100 µg/mL
CC(=O)O[C@@H]1C=C(C=O)[C@](O)(C=O)[C@@]2(C)CCCC(C)(C)[C@H]12 [CINNAMODIAL]	> 100 µg/mL	–	> 100 µg/mL	> 100 µg/mL	–	> 100 µg/mL	> 100 µg/mL	> 100 µg/mL	> 100 µg/mL	> 100 µg/mL	> 100 µg/mL	> 100 µg/mL	> 100 µg/mL	> 100 µg/mL	> 100 µg/mL
CC1(C)CCC[C@]2(C)[C@H](C=O)C(C=O)=CC[C@@H]12 [EPIPOLYGODIAL]	> 100 µg/mL	> 100 µg/mL	> 100 µg/mL	> 100 µg/mL	> 100 µg/mL	> 100 µg/mL	> 100 µg/mL	> 100 µg/mL	> 100 µg/mL	> 100 µg/mL	> 100 µg/mL	> 100 µg/mL	> 100 µg/mL	> 100 µg/mL	> 100 µg/mL
CC1(C)CCC[C@@]2(C)[C@H]1[C@@H](O)C=C(C=O)[C@]2(O)C=O [MUKAADIAL]	> 100 µg/mL	> 100 µg/mL	> 100 µg/mL	> 100 µg/mL	> 100 µg/mL	> 100 µg/mL	> 100 µg/mL	> 100 µg/mL	> 100 µg/mL	> 100 µg/mL	> 100 µg/mL	> 100 µg/mL	100 µg/mL (≈ 375 µM)	> 100 µg/mL	> 100 µg/mL
CC1(C)CCC[C@]2(C)[C@@H](C=O)C(C=O)=CC[C@@H]12 [POLYGODIAL]	> 100 µg/mL	6.25 µg/mL (≈ 26.7 µM)	> 100 µg/mL	> 100 µg/mL	1.56 µg/mL (≈ 6.66 µM)	25 µg/mL (≈ 107 µM)	0.78 µg/mL (≈ 3.33 µM)	25 µg/mL (≈ 107 µM)	> 100 µg/mL	1.56 µg/mL (≈ 6.66 µM)	> 100 µg/mL	12.5 µg/mL (≈ 53.3 µM)	1.56 µg/mL (≈ 6.66 µM)	> 100 µg/mL	6.25 µg/mL (≈ 26.7 µM)
CC1(C)CCC[C@@]2(C)[C@H]1CC=C(C=O)[C@]2(O)C=O [WARBURGANAL]	> 100 µg/mL	12.5 µg/mL (≈ 49.9 µM)	> 100 µg/mL	> 100 µg/mL	12.5 µg/mL (≈ 49.9 µM)	50 µg/mL (≈ 200 µM)	3.13 µg/mL (≈ 12.5 µM)	50 µg/mL (≈ 200 µM)	> 100 µg/mL	3.13 µg/mL (≈ 12.5 µM)	> 100 µg/mL	100 µg/mL (≈ 399 µM)	3.13 µg/mL (≈ 12.5 µM)	> 100 µg/mL	25 µg/mL (≈ 99.9 µM)

The next compounds have a lower MIC (Bacillus subtilis) than those just listed; values first:

MIC (Bacillus subtilis)	MIC [1]	MIC (Escherichia coli)	MIC (Pseudomonas aeruginosa)	MIC (Wickerhamomyces anomalus)	MIC (Aspergillus niger)	MIC (Saccharomyces cerevisiae)	MIC (Penicillium crustosum)	MIC (Proteus vulgaris)	MIC (Cyberlindnera jadinii)	MIC (Staphylococcus aureus)	MIC [2]	MIC (Sclerotinia)	MIC (Micrococcus luteus)	MIC (Mucor mucedo)	Structure (SMILES)
50 µg/mL (≈ 154 µM)	–	> 100 µg/mL	> 100 µg/mL	–	–	100 µg/mL (≈ 308 µM)	> 100 µg/mL	–	100 µg/mL (≈ 308 µM)	50 µg/mL (≈ 154 µM)	–	–	–	50 µg/mL (≈ 154 µM)	CC(C)=CCc1cc([C@@H]2CC(=O)c3ccc(O)cc3O2)ccc1O [ABYSSINONE II]
12.5 µg/mL (≈ 31.8 µM)	–	> 100 µg/mL	> 100 µg/mL	–	–	> 100 µg/mL	> 100 µg/mL	–	> 100 µg/mL	25 µg/mL (≈ 63.7 µM)	–	–	–	> 100 µg/mL	CC(C)=CCc1cc([C@@H]2CC(=O)c3ccc(O)cc3O2)cc(CC=C(C)C)c1O [ABYSSINONE IV]
25 µg/mL (≈ 61.2 µM)	–	> 100 µg/mL	> 100 µg/mL	–	–	> 100 µg/mL	> 100 µg/mL	–	> 100 µg/mL	50 µg/mL (≈ 122 µM)	–	–	–	> 100 µg/mL	CC(C)=CCc1cc([C@@H]2CC(=O)c3c(O)cc(O)cc3O2)cc(CC=C(C)C)c1O [ABYSSINONE V]
3.13 µg/mL (≈ 7.97 µM)	–	> 100 µg/mL	> 100 µg/mL	–	–	> 100 µg/mL	> 100 µg/mL	–	> 100 µg/mL	3.13 µg/mL (≈ 7.97 µM)	–	–	–	> 100 µg/mL	CC(C)=CCc1cc2c(cc1O)OC[C@H]1c3ccc(O)c(CC=C(C)C)c3O[C@@H]21 [ERYBRAEDIN C]
6.25 µg/mL (≈ 17.6 µM)	–	> 100 µg/mL	> 100 µg/mL	–	–	50 µg/mL (≈ 141 µM)	> 100 µg/mL	–	50 µg/mL (≈ 141 µM)	12.5 µg/mL (≈ 35.3 µM)	–	–	–	25 µg/mL (≈ 70.5 µM)	COc1ccc2c(c1CC=C(C)C)O[C@H]1c3ccc(O)cc3OC[C@@]21O [ERYTHRABYSSIN I]
6.25 µg/mL (≈ 19.4 µM)	–	> 100 µg/mL	> 100 µg/mL	–	–	25 µg/mL (≈ 77.6 µM)	> 100 µg/mL	–	50 µg/mL (≈ 155 µM)	12.5 µg/mL (≈ 38.8 µM)	–	–	–	12.5 µg/mL (≈ 38.8 µM)	CC1(C)C=Cc2c(ccc3c2O[C@H]2c4ccc(O)cc4OC[C@@H]32)O1 [PHASEOLIN]
25 µg/mL (≈ 77.1 µM)	–	> 100 µg/mL	> 100 µg/mL	–	–	> 100 µg/mL	> 100 µg/mL	–	> 100 µg/mL	50 µg/mL (≈ 154 µM)	–	–	–	100 µg/mL (≈ 308 µM)	CC(C)=CCc1c(O)ccc2c1O[C@H]1c3ccc(O)cc3OC[C@@H]21 [PHASEOLLIDIN]
25 µg/mL (≈ 61.2 µM)	–	> 100 µg/mL	> 100 µg/mL	–	–	100 µg/mL (≈ 245 µM)	> 100 µg/mL	–	100 µg/mL (≈ 245 µM)	25 µg/mL (≈ 61.2 µM)	–	–	–	50 µg/mL (≈ 122 µM)	CC(C)=CCc1cc(C2CC(=O)c3c(O)cc(O)cc3O2)cc(CC=C(C)C)c1O (stereo not drawn) [PHASEOLLIN]

From ChEMBL document CHEMBL1150069, “Ethnobotanical drug discovery based on medicine men's trials in the African savanna: screening of east African plants for antimicrobial activity II” (1993)
